Measurements published in article PMC7920489 (Pharmaceuticals, 2021).
Read-outs that look alike come from different tables or passages of the source.

Tests used:
in vivo = settings: nude, mouse, ip, 50 mg/kg
[1] = nude, mouse, in vivo, ip, 50 mg/kg

## COc1cccc(-c2cc(=O)c3ccccc3o2)c1NC(=O)C(C)(C)c1cc(C(=O)Nc2ccc(N(CCCl)CCCl)cc2)ccc1N [AL530]
In vivo
  tmax: 2 h
[1]
  tmax: 2.5 h
